pIC50: −log10 of the molar value.
Legend:
[1] = biological target: T1, His6-DDR2 (cytoplasmic domain of human DDR2) (Homo sapiens, UniProt Q16832); assay: Determination of DDR2 kinase inhibitory activity (His6-DDR2 tyrosine autophosphorylation, HTRF); assay type: biochemical; settings: cell free, ATP, room temperature 10 minutes, HTRF detection; read-out: IC50 (concentration of the test substance required for inhibiting His6-DDR2 kinase activity by 50%)
T1 construct: cytoplasmic domain of DDR2 having 6 histidines fused to the N-terminus thereof; made in house; host or cells: Sf9 insect cells (baculovirus, pFastBac-HT)
T1 sequence (Q16832 422-855 limits assumed): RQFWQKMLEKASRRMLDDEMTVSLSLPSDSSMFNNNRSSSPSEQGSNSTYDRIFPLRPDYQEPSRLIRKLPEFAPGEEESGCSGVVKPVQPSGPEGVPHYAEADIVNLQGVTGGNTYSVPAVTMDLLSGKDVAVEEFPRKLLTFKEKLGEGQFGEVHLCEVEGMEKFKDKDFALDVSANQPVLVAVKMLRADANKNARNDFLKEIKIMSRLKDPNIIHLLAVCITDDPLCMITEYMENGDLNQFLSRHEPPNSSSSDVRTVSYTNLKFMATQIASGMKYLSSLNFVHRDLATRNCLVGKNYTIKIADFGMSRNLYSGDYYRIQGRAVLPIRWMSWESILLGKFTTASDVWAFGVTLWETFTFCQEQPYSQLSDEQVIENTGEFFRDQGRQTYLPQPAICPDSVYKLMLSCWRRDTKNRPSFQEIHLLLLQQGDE
Source text: A DNA fragment of cytoplasmic domain of human DDR2 (SEQ ID NO: 1) was isolated by PCR method (Expand High Fidelity (purchased from Roche)) according to a conventional technique using human brain cDNA library (purchased from Clontech) as a template and SEQ ID NO:3: 5′-[…]-3′ and SEQ ID NO:4: 5′-[…]-3′ (purchased from JBioS) as primers. This DNA fragment was inserted into a baculovirus transplacement vector (pFastBac™-HT (purchased from Invitrogen)) to obtain a recombinant construct. Insect cells (Spodoptera frugiperda 9 (Sf9 cells)) were transfected with this recombinant construct, thereby preparing a DDR2 recombinant baculovirus solution. For preparation of a recombinant baculovirus, we referred to a standard textbook (Bac-to-Bac Baculovirus Expression System (Invitrogen)).
The above-described DDR2 recombinant Baculovirus solution (0.07 mL) was added to Sf9 cells (7×10^7 cells) suspended in 2.5% FBS-containing SF-900II medium (purchased from Invitrogen) and shake-cultured at 27° C. for 72 hours. Then, this DDR2 recombinant Baculovirus-infected cells were subjected to centrifugation at 1,600 rpm at 4° C. for 6 minutes and the supernatant was removed. The precipitated infected cells were suspended in 10 mL of ice-cold PBS and centrifuged at 1,600 rpm at 4° C. for 6 minutes to remove the supernatant. The precipitated infected cells were suspended in 5 mL of ice-cold lysis buffer (50 mM Tris-HCl (pH 8.5), 5 mM 2-mercaptoethanol, 100 mM KCl, 1 mM PMSA, 1% (v/v) NP40), and centrifuged at 10,000 rpm at 4° C. for 10 minutes to obtain the supernatant.
This supernatant was added to a Ni-NTA agarose column (1.5 mL (purchased from Qiagen)) equilibrated with 5 mL of buffer A (20 mM Tris-HCl (pH 8.5), 5 mM 2-mercaptoethanol, 500 mM KCl, 20 mM imidazole, 10% (v/v) glycerol). This column was sequentially washed with 10 mL of buffer A, 2 mL of buffer B (20 mM Tris-HCl (pH8.5), 5 mM 2-mercaptoethanol, 1 M KCl, 10% (v/v) glycerol) and 2 mL of buffer A. Subsequently, 4 mL of buffer C (20 mM Tris-HCl (pH 8.5), 5 mM 2-mercaptoethanol, 100 mM KCl, 100 mM imidazole, 10% (v/v) glycerol) was added to obtain an eluate. This eluate was placed in a dialysis membrane (purchased from Spectrum Medical Industries) and dialyzed against 1 L of dialysis buffer (20 mM Tris-HCl, 10% (v/v) glycerol, 1 mM dithiothreitol, 0.1 mM Na3VO4, 0.1 mM EGTA) at 4° C. overnight. After dialysis, a portion of the eluate was subjected to SDS-PAGE and an amount of the recombinant protein detected at a molecular weight of about 40 kDa (His6-DDR2 (cytoplasmic domain of DDR2 having 6 histidines fused to the N-terminus thereof)) by Coomassie brilliant blue staining was quantitated using BSA as a standard substance.
To each well of a 96-well black half plate (purchased from Corning, Product No: 3694), 20 ng of His6-DDR2, 35 μL of 25 mM Hepes solution (pH 7.4) containing 14 mM MgCl2 and a test substance dissolved in dimethylsulfoxide (at 100-fold dilution with 1% BSA; 5 μL) were added to a total amount of 40 μL. To this, […] of 50 μM ATP (purchased with Sigma) diluted with 25 mM Hepes solution was added and incubated at room temperature for 10 minutes. Thereafter, 10 μL of 50 mM EDTA (pH 8.0) (purchased from Wako Pure Chemical Industries) was added to terminate the kinase reaction.
Tyrosine-phosphorylated DDR2 was detected using homogeneous time resolved fluorescence (HTRF) technique (Analytical Biochemistry, 269, 94-104, 1999). Specifically, to each well of the reaction solutions mentioned above, 20 μL of 25 mM Hepes solution containing 1 M KF, 4.75 ng of europium cryptate-labeled anti-phosphorylated tyrosine antibody (Eu(K)-PT66) and 100 ng of XL665-labeled anti-His antibody (XL665-Anti-His) was added. This reaction solution was incubated at room temperature overnight. Thereafter, fluorescence intensities of each well at 665 nm and 620 nm were measured under irradiation at an excitation wavelength of 337 nm using Discovery HTRF microplate analyzer (from Packard). […]

[2] = system: thioacetamide-induced hepatic fibrillization in Balb/cAnN female mice; assay: Mouse models of thioacetamide-induced cirrhosis (Azan staining of liver sections); assay type: in vivo; settings: orally once daily at 1 or 3 mg/kg, thioacetamide i.p. twice a week for five weeks
Experimental: Thioacetamide (purchased from Tokyo Chemical Industry) was intraperitoneally administered at 150 mg/kg for the first week and 200 mg/kg for the next second to fifth weeks to Balb/cAnN female mice (purchased from Charles River Laboratories) twice a week. The test substance (Compound 3) was suspended in 0.5% methylcellulose aqueous solution and orally administered once daily at 1 or 3 mg/kg. Three days after the final thioacetamide administration, livers were removed from the mice and subjected to 10% neutral buffered formalin fixation followed by Azan staining (staining technique is described in “Medical Technology, supp., new technique for staining” (Ishiyaku Publisher, 1999)). The degree of fibrillization was examined by observation of the stained tissue sections. Experiments were conducted for a group without the administration of thioacetamide (6 examples), a group administered with thioacetamide but a test substance (3 examples), a group administered with Compound 3 at 1 mg/kg (6 examples) and a group administered with Compound 3 at 3 mg/kg (3 examples).

pIC50 [1]: 9.74
SMILES: COc1cc2nccc(Oc3ccc(NC(=O)Nc4nccs4)cc3)c2cc1OC [Compound 3, N-(2-thiazole)-N′-(4-((6,7-dimethoxy-4-quinolinyl)oxy)phenyl)urea]
degree of hepatic fibrillization (observation of stained tissue sections) [2]: suppressed hepatic fibrillization in a dose-dependent manner

Source: patent US20090203693A1, “THERAPEUTIC AGENT FOR LIVER FIBROSIS” (Eisai R & D Management Co., Ltd., priority 2006, published 2009)
